Solubility data for one compound are collected here from patent US20240417390A1, “HYDROGEN SULFATE SALT OF A BCL-2 INHIBITOR, RELATED CRYSTALLINE FORM, METHOD FOR PREPARING THE SAME AND PHARMACEUTICAL COMPOSITIONS CONTAINING THE SAME” (LES LABORATOIRES SERVIER, priority 2018, published 2024).

Molecules are shown by their SMILES. A value given as a limit tells only on which side of the number the result lay.

One may read the solubility as the dissolved amount per volume that the medium holds. The low end stands for a poorly soluble substance, the high end for a readily soluble substance.

A short description of this data set: Solubility in water. The data set is classed as physicochemical. To be noted: free base. As for the experimental part:
Although Compound A is a very promising drug, it is a difficult compound to formulate. In particular, it is […] in water (<0.01 mg/ml for the free base). […] In addition, different polymorphs can have different rates of uptake in the body, leading to lower or higher biological activity than desired. In extreme cases, an undesired polymorph can even show toxicity. […] However, even though polymorphism has been a subject for intensive investigations, understanding and controlling this phenomenon represents a substantial scientific challenge. It is hard to predict whether a given molecule will crystallize in one or several crystal forms, and to find conditions leading to such crystallization.

Turning to `Cc1c(N(C(=O)c2cc(-c3cc(Cl)ccc3C(=O)N3Cc4ccccc4C[C@H]3CN3CCOCC3)n(C)c2C)c2ccc(O)cc2)cc(C#N)n1C` [Compound A, 5-(5-chloro-2-{[(3S)-3-(morpholin-4-ylmethyl)-3,4-dihydroisoquinolin-2(1H)-yl]carbonyl}phenyl)-N-(5-cyano-1,2-dimethyl-1H-pyrrol-3-yl)-N-(4-hydroxyphenyl)-1,2-dimethyl-1H-pyrrole-3-carboxamide], the solubility was under 10 µg/mL.
